From the supplement of paper PMC10307832

Assays:
Assay in all cases: relative viability (nuclei count vs DMSO), 5 days (fraction); higher = more cells survive
[1] = compound: CC1(COc2ccc3c(c2)ncn3-c2ccc3cccc(N4CCC(N)CC4)c3n2)COC1 [Crenolanib] + Cc1nc(NC(=O)N2CCC[C@H]2C(N)=O)sc1-c1ccnc(C(C)(C)C(F)(F)F)c1 [Alpelisib] (partner 2 µM)
Outline: (§1)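 Relative viability was taken as the ratio of nuclei in treated wells to nuclei in vehicle wells. Lung cancer cell lines in 1536-well plates received compounds by pin tool one day after seeding, either one drug alone or a fixed anchor-drug dose plus five library-drug doses (not always all listed) in √10 steps. Nuclei were counted on 4× images after 5 days of treatment, and values are medians of duplicate plates.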

[2] = compound: O=C1NC(=O)[C@@H](c2cn3c4c(cccc24)CCC3)[C@@H]1c1c[nH]c2ccccc12 [Tivantinib] + COc1cc2c(Oc3ccc(NC(=O)C4(C(=O)Nc5ccc(F)cc5)CC4)cc3F)ccnc2cc1OCCCN1CCOCC1 [Foretinib] (partner 0.25 µM)
Outline: as §1

[3] = compound: O=C1NC(=O)[C@@H](c2cn3c4c(cccc24)CCC3)[C@@H]1c1c[nH]c2ccccc12 [Tivantinib] + C[C@@H](Oc1cc(-c2cnn(C3CCNCC3)c2)cnc1N)c1c(Cl)ccc(F)c1Cl [Crizotinib] (partner 1 µM)
Outline: as §1

[4] = compound: CC1(COc2ccc3c(c2)ncn3-c2ccc3cccc(N4CCC(N)CC4)c3n2)COC1 [Crenolanib] + Cc1nc(Nc2ncc(C(=O)Nc3c(C)cccc3Cl)s2)cc(N2CCN(CCO)CC2)n1 [Dasatinib] (partner 0.075 µM)
Outline: as §1

Cell Line	relative viability ([1]; first compound 0.01 µM)	relative viability ([1]; first compound 0.03162 µM)	relative viability ([1]; first compound 0.1 µM)	relative viability ([1]; first compound 0.3162 µM)	relative viability ([1]; first compound 1 µM)	relative viability ([2]; first compound 0.01 µM)	relative viability ([2]; first compound 0.03162 µM)	relative viability ([2]; first compound 0.1 µM)	relative viability ([2]; first compound 0.3162 µM)	relative viability ([3]; first compound 0.01 µM)	relative viability ([3]; first compound 0.03162 µM)	relative viability ([3]; first compound 0.1 µM)	relative viability ([3]; first compound 0.3162 µM)	relative viability ([4]; first compound 0.01 µM)	relative viability ([4]; first compound 0.03162 µM)	relative viability ([4]; first compound 0.1 µM)	relative viability ([4]; first compound 0.3162 µM)	relative viability ([4]; first compound 1 µM)
HCC-827	1.04	1.01	0.916	1.03	0.992	1.01	1.12	0.957	0.485	0.92	1.01	0.91	0.779	0.338	0.33	0.398	0.366	0.396
HOP-62	0.851	0.985	1.03	1.06	0.941	1.17	1.02	1.06	1.14	0.828	–	0.972	1.03	0.658	0.703	0.578	0.769	0.684
IA-LM	0.786	0.819	0.75	0.898	0.854	1.01	1.15	0.983	1.12	0.962	0.857	0.677	1.08	–	–	–	–	–
LC-2-ad	0.945	0.886	0.815	1.03	0.89	0.849	0.924	0.85	0.597	0.515	0.411	0.501	0.411	0.707	0.555	0.486	0.741	0.533
LCLC-97TM1	0.257	0.287	0.326	0.287	0.308	0.993	0.928	0.911	0.888	0.451	0.305	0.38	0.318	0.877	0.883	0.857	0.949	0.67
LCLC-103H	0.852	0.859	0.888	0.886	0.942	0.783	0.68	0.735	0.663	0.996	1.04	1.05	0.941	0.444	0.454	0.477	0.457	0.428
LK-2	0.637	0.924	1.1	0.956	0.997	1.48	–	1.16	0.929	0.2	–	0.223	0.218	0.378	0.253	0.382	0.231	0.249
LOU-NH91	0.784	0.755	0.635	0.641	0.694	0.901	0.925	0.939	0.573	0.746	0.729	0.705	0.53	0.598	0.53	0.527	0.559	0.593
LU99A	0.565	0.503	0.49	0.526	0.506	0.692	0.84	0.737	0.6	0.516	0.593	0.576	0.413	0.492	0.579	0.669	0.581	0.522
LXF-289	1.02	1.04	1.01	1.09	1.02	0.96	0.927	0.95	0.983	0.792	0.819	0.777	0.827	0.194	0.228	0.253	0.237	0.229
NCI-H23	0.845	0.797	0.604	0.778	0.741	1.08	0.957	1	0.801	0.511	0.615	0.512	0.416	0.804	0.778	0.71	0.848	0.643
NCI-H322M	0.807	0.909	0.829	0.913	0.841	1.02	0.922	0.943	–	0.823	0.94	0.901	1.02	0.241	0.258	0.255	0.251	0.303
NCI-H522	–	–	–	–	–	–	–	–	–	–	–	–	–	0.987	1.01	0.899	0.854	0.975
NCI-H1299	1.04	1.06	0.982	1.06	1.05	1.1	1.04	1.04	1.07	0.686	0.972	0.587	0.93	–	–	–	–	–
NCI-H1395	1.1	1.14	1.1	0.914	0.938	1.11	1.03	0.966	0.828	–	–	–	–	0.406	0.387	0.39	0.37	0.403
NCI-H1623	–	–	–	–	–	0.87	0.745	0.818	–	–	–	–	–	0.55	0.515	0.548	0.558	0.504
NCI-H1650	–	–	–	–	–	1.08	1.11	1.02	0.972	1.07	0.903	1.04	0.984	0.301	0.338	0.29	0.285	0.32
NCI-H1703	0.33	0.378	0.242	0.174	0.151	0.384	0.335	0.319	0.307	0.747	1.01	0.535	0.255	–	–	–	–	–
NCI-H1792	0.707	0.741	0.697	0.705	0.666	–	–	–	–	1.02	0.948	0.828	0.932	0.779	0.777	0.751	0.866	0.747
NCI-H1793	0.684	0.964	0.712	0.76	0.717	0.698	0.616	0.762	0.548	–	–	–	–	0.365	0.412	0.4	0.404	0.418
NCI-H2342	–	–	–	–	–	1.08	1.15	0.948	0.682	–	–	–	–	0.338	0.304	0.307	0.338	0.316
SW 900	–	–	–	–	–	0.831	0.934	0.818	0.888	–	–	–	–	0.719	0.725	0.595	0.581	0.404
